Results from PubChem BioAssay (NCI).
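The compound was tested at five concentrations on cells cultured in 96-well plates, with a 48-hour exposure period. GI50 = concentration required for 50% inhibition of growth. TGI: concentration producing complete growth inhibition.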

Experiments:
Assay in all cases: DTP human tumour cell line panel, 48 h
[1] = system: 786-0 renal
[2] = system: A498 renal
[3] = system: A549 NSCLC
[4] = system: ACHN renal
[5] = system: BT-549 breast
[6] = system: CAKI-1 renal
[7] = system: CCRF-CEM leukemia
[8] = system: COLO 205 colon
[9] = system: DU-145 prostate
[10] = system: EKVX NSCLC
[11] = system: HCT-116 colon
[12] = system: HCT-15 colon
[13] = system: HL-60(TB) leukemia
[14] = system: HOP-62 NSCLC
[15] = system: HS 578T breast
[16] = system: IGROV1 ovarian
[17] = system: K-562 leukemia
[18] = system: KM12 colon
[19] = system: LOX IMVI melanoma
[20] = system: M14 melanoma
[21] = system: MALME-3M melanoma
[22] = system: MCF7 breast
[23] = system: MDA-MB-231 breast
[24] = system: MDA-MB-435
[25] = system: MOLT-4 leukemia
[26] = system: NCI-H226 lung
[27] = system: NCI-H23 lung
[28] = system: NCI-H460 lung
[29] = system: NCI-H522 lung
[30] = system: NCI/ADR-RES ovarian
[31] = system: OVCAR-3 ovarian
[32] = system: OVCAR-5 ovarian
[33] = system: OVCAR-8 ovarian
[34] = system: PC-3 prostate
[35] = system: RPMI-8226 leukemia
[36] = system: SF-268 CNS
[37] = system: SF-295 CNS
[38] = system: SF-539 CNS
[39] = system: SK-MEL-2 melanoma
[40] = system: SK-MEL-5 melanoma
[41] = system: SK-OV-3 ovarian
[42] = system: SN12C renal
[43] = system: SNB-19 CNS
[44] = system: SR leukemia
[45] = system: SW-620 colon
[46] = system: T-47D breast
[47] = system: TK-10 renal
[48] = system: U251 CNS
[49] = system: UACC-257 melanoma
[50] = system: UACC-62 melanoma
[51] = system: UO-31 renal
[52] = system: HCC-2998 colon
[53] = system: HT29 colon
[54] = system: OVCAR-4 ovarian
[55] = system: RXF 393 renal
[56] = system: SK-MEL-28 melanoma
[57] = system: SNB-75 CNS

O=S(=O)(CC#CCCCOCC#Cc1ccccc1C#CCS(=O)(=O)c1ccccc1)c1ccccc1
GI50 [1]: 18.9 µM
TGI [1]: 35.3 µM
GI50 [2]: > 100 µM
TGI [2]: > 100 µM
GI50 [3]: 33.6 µM
TGI [3]: > 100 µM
GI50 [4]: 24.3 µM
TGI [4]: 55 µM
GI50 [5]: 19 µM
TGI [5]: 34.8 µM
GI50 [6]: 13.3 µM
TGI [6]: 30.8 µM
GI50 [7]: 3.23 µM
TGI [7]: 10.2 µM
GI50 [8]: 72.3 µM
TGI [8]: > 100 µM
GI50 [9]: 44.5 µM
TGI [9]: > 100 µM
GI50 [10]: > 100 µM
TGI [10]: > 100 µM
GI50 [11]: 16.2 µM
TGI [11]: 29.7 µM
GI50 [12]: 22.6 µM
TGI [12]: 45.6 µM
GI50 [13]: 21.8 µM
TGI [13]: 50.1 µM
GI50 [14]: 31.7 µM
TGI [14]: > 100 µM
GI50 [15]: 35.2 µM
TGI [15]: > 100 µM
GI50 [16]: 11.8 µM
TGI [16]: 25.7 µM
GI50 [17]: 15.9 µM
TGI [17]: 39.6 µM
GI50 [18]: 33.2 µM
TGI [18]: > 100 µM
GI50 [19]: 8.1 µM
TGI [19]: 24.8 µM
GI50 [20]: 25.2 µM
TGI [20]: 56.5 µM
GI50 [21]: 20.6 µM
TGI [21]: 59.7 µM
GI50 [22]: 16.3 µM
TGI [22]: 35.3 µM
GI50 [23]: 19.8 µM
TGI [23]: 42.8 µM
GI50 [24]: 26 µM
TGI [24]: 62.4 µM
GI50 [25]: 2.61 µM
TGI [25]: 5.9 µM
GI50 [26]: 16.6 µM
TGI [26]: 45.7 µM
GI50 [27]: 15.5 µM
TGI [27]: 44.8 µM
GI50 [28]: 31.2 µM
TGI [28]: > 100 µM
GI50 [29]: 14.6 µM
TGI [29]: 33 µM
GI50 [30]: 20.6 µM
TGI [30]: 44.1 µM
GI50 [31]: 11.6 µM
TGI [31]: 30 µM
GI50 [32]: 24.8 µM
TGI [32]: 55.3 µM
GI50 [33]: 16.1 µM
TGI [33]: 42 µM
GI50 [34]: 20.4 µM
TGI [34]: 65.3 µM
GI50 [35]: 11.6 µM
TGI [35]: 31.4 µM
GI50 [36]: 19.6 µM
TGI [36]: 50.1 µM
GI50 [37]: 29.8 µM
TGI [37]: 91.3 µM
GI50 [38]: 22.9 µM
TGI [38]: 45.3 µM
GI50 [39]: 23 µM
TGI [39]: 47.9 µM
GI50 [40]: 15.3 µM
TGI [40]: 31.8 µM
GI50 [41]: > 100 µM
TGI [41]: > 100 µM
GI50 [42]: 18.3 µM
TGI [42]: 40.7 µM
GI50 [43]: > 100 µM
TGI [43]: > 100 µM
GI50 [44]: 4.16 µM
TGI [44]: 21.8 µM
GI50 [45]: 28.6 µM
TGI [45]: > 100 µM
GI50 [46]: > 100 µM
TGI [46]: > 100 µM
GI50 [47]: > 100 µM
TGI [47]: > 100 µM
GI50 [48]: 20.5 µM
TGI [48]: 41 µM
GI50 [49]: 14.9 µM
TGI [49]: 38.9 µM
GI50 [50]: 17.7 µM
TGI [50]: 39.7 µM
GI50 [51]: 17.7 µM
TGI [51]: 35.4 µM

Clc1nc(Cl)c2ncn(C/C=C/Cn3cnc4c(Cl)nc(Cl)nc43)c2n1
GI50 [1]: 23.4 µM
TGI [1]: 48.5 µM
GI50 [2]: 21.5 µM
TGI [2]: 41.2 µM
GI50 [3]: 13.2 µM
TGI [3]: 32 µM
GI50 [4]: 18.2 µM
TGI [4]: 32.2 µM
GI50 [5]: 16.7 µM
TGI [5]: 31.3 µM
GI50 [6]: 13.9 µM
TGI [6]: 28.1 µM
GI50 [7]: 10.7 µM
TGI [7]: 25.3 µM
GI50 [8]: 15.1 µM
TGI [8]: 35.5 µM
GI50 [9]: 15.2 µM
TGI [9]: 28.6 µM
GI50 [10]: 20.5 µM
TGI [10]: 36.9 µM
GI50 [52]: 16 µM
TGI [52]: 31.4 µM
GI50 [11]: 10.7 µM
TGI [11]: 24.4 µM
GI50 [12]: 16.1 µM
TGI [12]: 30.2 µM
GI50 [13]: 17.3 µM
TGI [13]: > 100 µM
GI50 [14]: 15.6 µM
TGI [14]: 32.9 µM
GI50 [15]: 14.6 µM
TGI [15]: 35.1 µM
GI50 [53]: 14.7 µM
TGI [53]: 29.9 µM
GI50 [16]: 11.8 µM
TGI [16]: 25.7 µM
GI50 [17]: 15.5 µM
TGI [17]: 55.8 µM
GI50 [18]: 17.3 µM
TGI [18]: 33.9 µM
GI50 [19]: 14.9 µM
TGI [19]: 28.9 µM
GI50 [20]: 21.2 µM
TGI [20]: 39.7 µM
GI50 [21]: 31.2 µM
TGI [21]: 52.5 µM
GI50 [22]: 6.69 µM
TGI [22]: 21.6 µM
GI50 [23]: 21.2 µM
TGI [23]: 38 µM
GI50 [24]: 19.8 µM
TGI [24]: 39.4 µM
GI50 [25]: 17 µM
TGI [25]: 37.4 µM
GI50 [26]: 22.3 µM
TGI [26]: 42.9 µM
GI50 [27]: 18.7 µM
TGI [27]: 38 µM
GI50 [28]: 20 µM
TGI [28]: 40.7 µM
GI50 [29]: 6.75 µM
TGI [29]: 22.7 µM
GI50 [30]: 20.1 µM
TGI [30]: 44.6 µM
GI50 [31]: 12.2 µM
TGI [31]: 25.4 µM
GI50 [54]: 20 µM
TGI [54]: 34.8 µM
GI50 [32]: 19.5 µM
TGI [32]: 35.1 µM
GI50 [33]: 6.11 µM
TGI [33]: 21 µM
GI50 [34]: 17.5 µM
TGI [34]: 33.2 µM
GI50 [35]: 10.4 µM
TGI [35]: 25.8 µM
GI50 [55]: 2.3 µM
TGI [55]: 6.42 µM
GI50 [36]: 14.6 µM
TGI [36]: 30.5 µM
GI50 [37]: 16.8 µM
TGI [37]: 31.3 µM
GI50 [38]: 21.3 µM
TGI [38]: 41 µM
GI50 [39]: 14.2 µM
TGI [39]: 29.3 µM
GI50 [56]: 17.5 µM
TGI [56]: 33 µM
GI50 [40]: 16.5 µM
TGI [40]: 31.1 µM
GI50 [41]: 44.3 µM
TGI [41]: > 100 µM
GI50 [42]: 19.7 µM
TGI [42]: 40.7 µM
GI50 [43]: 19.1 µM
TGI [43]: 38 µM
GI50 [57]: 19.1 µM
TGI [57]: 44 µM
GI50 [44]: 14.9 µM
TGI [44]: 32.2 µM
GI50 [45]: 8.72 µM
TGI [45]: 22.5 µM
GI50 [46]: 11.2 µM
TGI [46]: 32 µM
GI50 [47]: 21.7 µM
TGI [47]: 39 µM
GI50 [48]: 16.8 µM
TGI [48]: 30.7 µM
GI50 [49]: 11 µM
TGI [49]: 27.8 µM
GI50 [50]: 17.5 µM
TGI [50]: 32.1 µM
GI50 [51]: 17.9 µM
TGI [51]: 34.5 µM
